Laboratory results published in patent US11352330B2, “Phenoxymethyl derivatives” (Hoffmann-La Roche Inc., priority 2015, dated 2022).

These compounds were tested against human ATX (Homo sapiens (Human), UniProt Q13822) (assay: Human ATX enzyme inhibition assay (fluorescence quenching, MR121 substrate)). Details: human His-tagged ATX 30 nM, MR121 substrate 1 μM, 30° C.
Type: biochemical
Description: Human ATX Enzyme Inhibition Assay
ATX inhibition was measured by a fluorescence quenching assay using a specifically labeled substrate analogue (MR121 substrate). To obtain this MR121 substrate, BOC and TBS protected 6-amino-hexanoic acid (R)-3-({2-[3-(2-{2-[2-(2-amino-ethoxy)-ethoxy]-ethoxy}-ethoxy)-propionylamino]-ethoxy}-hydroxy-phosphoryloxy)-2-hydroxy-propyl ester (Ferguson et al., Org Lett 2006, 8 (10), 2023) was labeled with MR121 fluorophore (CAS 185308-24-1, 1-(3-carboxypropyl)-11-ethyl-1,2,3,4,8,9,10,11-octahydro-dipyrido[3,2-b:2′,3′-i]phenoxazin-13-ium) on the free amine of the ethanolamine side and then, after deprotection, subsequently with tryptophan on the side of the aminohexanoic acid.
Assay working solutions were made as follows:
Assay buffer (50 mM Tris-HCl, 140 mM NaCl, 5 mM KCl, 1 mM CaCl2, 1 mM MgCl2, 0.01% Triton-X-100, pH 8.0;
ATX solution: ATX (human His-tagged) stock solution (1.08 mg/mL in 20 mM bicine, pH 8.5, 0.15 M NaCl, 10% glycerol, 0.3% CHAPS, 0.02% NaN3), diluted to 1.4-2.5× final concentration in assay buffer;
MR121 substrate solution: MR121 substrate stock solution (800 μM MR121 substrate in DMSO), diluted to 2-5× final concentration in assay buffer.
Test compounds (10 mM stock in DMSO, 8 μL) were obtained in 384 well sample plates (Corning Costar #3655) and diluted with 8 μL DMSO. Row-wise serial dilutions were made by transferring 8 μL cpd solution to the next row up to row O. The compound and control solutions were mixed five times and 2 μL were transferred to 384 well assay plates (Corning Costar #3702). Then, 15 μL of 41.7 nM ATX solution was added (30 nM final concentration), mixed five times and then incubated for 15 minutes at 30° C. 10 μL of MR121 substrate solution was added (1 μM final concentration), mixed 30 times and then incubated for 15 minutes at 30° C.

| SMILES | IC50 |
| --- | --- |
| Cc1cc(OCc2n[nH]c(=O)n2C)c(-c2cc(CN(C)C(=O)C3CC3)ccc2F)cc1Cl [Example B80] | 5 nM |
| Cc1cc(OCc2n[nH]c(=O)n2C)c(C(C)C)cc1C#N [Example A12] | 1 nM |
| COCC(=O)N(C)Cc1ccc(F)c(-c2cc(Cl)c(C)cc2OCc2n[nH]c(=O)n2C)c1 [Example B78] | 7 nM |
| Cc1cc(OCc2n[nH]c(=O)n2C)c(-c2cnco2)cc1Cl [Example B26] | 495 nM |
| Cc1nc(-c2cccc(-c3cc(C#N)c(Cl)cc3OCc3n[nH]c(=O)n3C)c2)no1 [Example B35] | 81 nM |
| Cc1cc(OCc2n[nH]c(=O)n2C)c(-c2ccno2)cc1Cl [Example B25] | 20 nM |
| Cc1ccc(C(C)C)c(OCc2n[nH]c(=O)n2C)c1 [Example A27, 4-Methyl-3-[(5-methyl-2-propan-2-ylphenoxy)methyl]-1H-1,2,4-triazol-5-one] | 19 nM |
| Cn1c(COc2cc(F)c(Cl)cc2C(C)(C)C)n[nH]c1=O [Example A2] | 10 nM |
| Cc1cc(C(C)(C)C)c(OCc2n[nH]c(=O)n2C)cc1C#N [Example A17] | 35 nM |
| Cn1c(COc2ccc(-c3ncc[nH]3)cc2C(C)(C)C)n[nH]c1=O [Example A32, 3-[[2-tert-butyl-4-(1H-imidazol-2-yl)phenoxy]methyl]-4-methyl-1H-1,2,4-triazol-5-one] | 3770 nM |
| Cc1cc(OCc2n[nH]c(=O)n2C)c(-c2ncco2)cc1Cl [Example B29, 3-[[4-Chloro-5-methyl-2-(1,3-oxazol-2-yl)phenoxy]methyl]-4-methyl-1H-1,2,4-triazol-5-one] | 78 nM |
| Cn1c(COc2cc(Cl)c(C#N)cc2-c2cc(OCC(F)(F)F)ccc2F)n[nH]c1=O [Example B98, 2-chloro-5-[2-fluoro-5-(2,2,2-trifluoroethoxy)phenyl]-4-[(4-methyl-5-oxo-1H-1,2,4-triazol-3-yl)methoxy]benzonitrile] | 9 nM |
| Cc1cc(OCc2n[nH]c(=O)n2C)c(-c2ccccc2Cl)cc1Cl [Example B2] | 1 nM |
| Cn1c(COc2cc(Cl)c(C#N)cc2-c2cc(OC3CC3)ccc2F)n[nH]c1=O [Example B95] | 6 nM |
| Cn1c(COc2ccc(C#N)cc2-c2ccccc2)n[nH]c1=O [Example B16] | 25 nM |
| Cc1cc(OCc2n[nH]c(=O)n2C)c(-c2cc(C(=O)N(C)Cc3cccs3)ccc2F)cc1Cl [Example B68] | 7 nM |
| COc1ncccc1-c1cc(C#N)c(Cl)cc1OCc1n[nH]c(=O)n1C [Example B54] | 29 nM |

| SMILES | IC50 |
| --- | --- |
| Cc1cc(OCc2n[nH]c(=O)n2C)c(-c2cc(C(=O)N(C)CC3CC3)ccc2F)cc1Cl [Example B70] | 4 nM |
| COc1cccc(-c2cc(C#N)c(Cl)cc2OCc2n[nH]c(=O)n2C)c1F [Example B88] | 1 nM |
| Cn1c(COc2cc(Cl)c(C#N)cc2-c2cccc(C(=O)N3CCOCC3)c2)n[nH]c1=O [Example B41] | 40 nM |
| Cc1cc(OCc2n[nH]c(=O)n2C)c(-c2cc(C(=O)N3CCCC3)ccc2F)cc1Cl [Example B62] | 9 nM |
| COC(=O)c1ccc(C)c(-c2cc(Cl)c(C)cc2OCc2n[nH]c(=O)n2C)c1 [Example B49, Methyl 3-[5-chloro-4-methyl-2-[(4-methyl-5-oxo-1H-1,2,4-triazol-3-yl)methoxy]phenyl]-4-methylbenzoate] | 8 nM |
| Cc1cc(OCc2n[nH]c(=O)n2C)c(-c2cc(C(=O)N(C)C3CCCC3)ccc2F)cc1Cl [Example B66] | 7 nM |
| COCCN(C)C(=O)c1ccc(F)c(-c2cc(Cl)c(C)cc2OCc2n[nH]c(=O)n2C)c1 [Example B73] | 9 nM |
| Cc1cc(OCc2n[nH]c(=O)n2C)c(-c2cccc(Cl)c2)cc1Cl [Example B3] | 1 nM |
| Cc1cc(OCc2n[nH]c(=O)n2C)c(-c2cc(CN3CCCC3=O)ccc2F)cc1Cl [Example B81] | 3 nM |
| Cc1cc(OCc2n[nH]c(=O)n2C)c(C(C)(C)C)cc1C#N [Example A16] | 5 nM |
| Cc1cc(OCc2n[nH]c(=O)n2C)c(-c2cccc(C(=O)NC3CCCCC3)c2)cc1Cl [Example B9] | 12 nM |
| Cc1cc(OCc2n[nH]c(=O)n2C)c(-c2cc(C(=O)N(C)C)ccc2C)cc1Cl [Example B51, 3-[5-Chloro-4-methyl-2-[(4-methyl-5-oxo-1H-1,2,4-triazol-3-yl)methoxy]phenyl]-N,N,4-trimethylbenzamide] | 17 nM |
| Cn1c(COc2cc(NS(C)(=O)=O)c(Cl)cc2C2CC2)n[nH]c1=O [Example A23] | > 27000 nM |
| CCOC(=O)CNC(=O)c1cccc(-c2cc(Cl)c(C)cc2OCc2n[nH]c(=O)n2C)c1 [Example B46, Ethyl 2-[[3-[5-chloro-4-methyl-2-[(4-methyl-5-oxo-1H-1,2,4-triazol-3-yl)methoxy]phenyl]benzoyl]amino]acetate] | 7 nM |
| Cc1noc(-c2ccc(OCc3n[nH]c(=O)n3C)c(C(C)(C)C)c2)n1 [Example A4] | 59 nM |
| Cc1cc(OCc2n[nH]c(=O)n2C)c(C2CCC2)cc1Cl [Example A31] | 19 nM |
| Cc1cc(OCc2n[nH]c(=O)n2C)c(C2CC2)cc1Cl [Example A19] | 15 nM |

Now from value to compound:

| IC50 | SMILES |
| --- | --- |
| 15 nM | COCC(=O)N1CCc2c(COc3cc(C)c(Cl)cc3C(C)(C)C)n[nH]c2C1 [Example E6, 1-(3-((2-tert-Butyl-4-chloro-5-methylphenoxy)methyl)-4,5-dihydro-1H-pyrazolo[3,4-c]pyridin-6(7H)-yl)-2-methoxyethanone] |
| 46 nM | Cc1cc(OCc2ccc(=O)[nH]n2)c(C(C)(C)C#N)cc1Cl [Example C9, 2-[5-chloro-4-methyl-2-[(6-oxo-1H-pyridazin-3-yl)methoxy]phenyl]-2-methylpropanenitrile] |
| 6 nM | Cc1cc(OCc2n[nH]c3nc(N(C)CCO)ccc23)c(C(C)(C)C)cc1Cl [Example D8, 2-[[3-[(2-tert-Butyl-4-chloro-5-methylphenoxy)methyl]-1H-pyrazolo[3,4-b]pyridin-6-yl]-methylamino]ethanol] |
| 13200 nM | Cc1cc(OCc2n[nH]c3nc(OCCO)ccc23)c(C(C)(C)C)cc1Cl [Example D13, 2-[[3-[(2-t-Butyl-4-chloro-&-methylphenoxy)methyl]-1H-pyrazolo[3,4-b]pyridin-6-yl]oxy]ethanol] |
| 8 nM | N#Cc1cc(-c2cc(OC3CC3)ccc2F)c(OCc2n[nH]c3ncccc23)cc1Cl [Example D53] |
| 4.5 nM | CC(C)(C)c1cc(Cl)c(F)cc1OCc1n[nH]c2nc(NCCO)ccc12 [Example D11] |
| 4 nM | COCCN(C)C(=O)c1ccc(F)c(-c2cc(Cl)c(C)cc2OCc2n[nH]c3cnccc23)c1 [Example D46] |
| 40 nM | Cc1cc(C(C)(C)C)c(OCc2ccc(=O)[nH]n2)cc1C#N [Example C13] |
| 5 nM | Cc1cc(OCc2ccc(=O)[nH]n2)c(C(C)(C)C)cc1Cl [Example C8, 3-[(2-tert-butyl-4-chloro-5-methylphenoxy)methyl]-1H-pyridazin-6-one] |
| 6 nM | Cc1cc(OCc2n[nH]c3ncccc23)c(-c2cc(C(=O)N3CCCC3)ccc2F)cc1Cl [Example D42] |
| 215 nM | Cc1cc(OCc2n[nH]c3ncccc23)c(C(C)(C)C)cc1S(C)(=O)=O [Example D9] |
| 8 nM | Cc1cc(OCc2n[nH]c3nc(N(C)CC(O)CO)ncc23)c(C(C)(C)C)cc1Cl (stereo not shown) [Example D27] |
| 98 nM | Cc1cc(OCc2n[nH]c3cccnc23)c(-c2cc(C(=O)N(C)C)ccc2F)cc1Cl [Example D28] |
| 27 nM | Cc1cc(OCc2cc[nH]n2)c(C(C)(C)C)cc1Cl [Example F1, 3-((2-tert-Butyl-4-chloro-5-methylphenoxy)methyl)-1H-pyrazole] |
| 6 nM | COCCN(C)C(=O)c1ccc(F)c(-c2cc(Cl)c(C)cc2OCc2n[nH]c3ncccc23)c1 [Example D40] |
| 14 nM | Cc1cc(OCc2n[nH]c3nc(N(C)CCO)ncc23)c(C(C)(C)C)cc1Cl [Example D26, 2-[[3-[(2-tert-Butyl-4-chloro-5-methylphenoxy)methyl]-1H-pyrazolo[3,4-d]pyrimidin-6-yl]-methylamino]ethanol] |
| 6 nM | Cc1cc(OCc2n[nH]c3nc(OCC(O)CO)ncc23)c(C(C)(C)C)cc1C#N (stereo not shown) [Example D37, 5-tert-Butyl-4-[[6-(2,3-dihydroxypropoxy)-1H-pyrazolo[3,4-d]pyrimidin-3-yl]methoxy]-2-methylbenzonitrile] |
| 18 nM | CC(C)(C)c1cc(Cl)c(F)cc1OCc1n[nH]c2cccnc12 [Example D25] |
| 14 nM | Cc1cc(OCc2n[nH]c3ccccc23)c(C(C)C)cc1Cl [Example D2, 3-[(4-Chloro-5-methyl-2-propan-2-ylphenoxy)methyl]-1H-indazole] |
| 1 nM | CC(C)(C)c1cc(Cl)c(C#N)cc1OCc1n[nH]c2cnccc12 [Example D50] |
| 10 nM | Cc1cc(OCc2n[nH]c3ncccc23)c(-c2cc(C(=O)N3CCOCC3)ccc2F)cc1Cl [Example D22] |
